Experimental data published in patent US20060287375A1 (priority 2003, published 2006).
Like-named read-outs stand apart in the source and are kept apart here.

Tests used:
[1] = tested on: Pyricularia oryzae; type: in vivo; conditions: paddy rice (Aichi Asahi), wettable powder on water surface, 1,000 g active ingredient per 10 ares; inoculated 10 days after application, examined 5 days after inoculation
[2] = tested on: Septoria nodorum; assay: Test for control effect on Septoria leaf spot of wheat; type: in vivo; conditions: wheat seedlings (Nohrin No. 61), wettable powder at 500 ppm, 10 ml per pot; examined 10 days after inoculation
From the text: Test for Control Effect on Septoria Leaf Spot of Wheat
In each of plastic pots of 6 cm in diameter were sown 10 wheat seeds (variety: Nohrin No. 61). They were allowed to germinate in a greenhouse. […] After air-drying, the seedlings were inoculated with pycnospores of Septoria nodorum and the pot was placed in a greenhouse. After 10 days from the inoculation, the total diseased area of all the first leaves in the pot was examined.

[3] = tested on: Pyricularia oryzae; type: in vivo; conditions: rice (Aichi Asahi), granule applied to seedling-raising box, 12 g active ingredient per box; inoculated 40 days after application, examined 6 days after inoculation
[4] = tested on: Pyricularia oryzae; type: in vivo; conditions: rice seedlings (Aichi Asahi), wettable powder sprayed at 500 ppm active ingredient, 10 ml per pot; examined 5 days after inoculation
[5] = tested on: Pseudoperonospora cubensis; conditions: cucumber seedlings (sagami hanjiro), wettable powder at 500 ppm, 15 ml per pot; examined 7 days later
Experimental: 10 cucumber seeds (variety: sagami hanjiro) were sown in each of vinyl chloride resin made pots of 9 cm×9 cm and were allowed to germinate in a greenhouse for 7 days. The resulting cucumber young seedlings which reached a cotyledon stage were used as a sample plant. […] The plant was air-dried and inoculated, by spraying, with a suspension of conidia of Pseudoperonospora cubensis. Immediately, the pot was placed in a wet house of 20° C. for 24 hours. Then, the pot was transferred into a greenhouse. 7 days later, the total diseased area of all the cotyledons in the pot was examined.

[6] = tested on: Erysiphe graminis; assay: Test for control effect on powdery mildew of wheat; type: in vivo; conditions: wheat seedlings (Nohrin No. 61), wettable powder at 500 ppm, 10 ml per pot; inoculated 7 days after application, examined 8 days after inoculation
From the text: Test for Control Effect on Powdery Mildew of Wheat
In each of plasic pots of 6 cm in diameter were sown 10 wheat seeds (variety: Nohrin No. 61). They were allowed to germinate in a greenhouse. […] After 7 days from the application, the seedlings were inoculated, by spraying, with conidia of Erysiphe graminis. After 8 days from the inoculation, the total infected area of all the first leaves in the pot was examined.

Structure (SMILES) | Evaluation (preventive value, number of lesions of the upper young leaf) [1] | Evaluation (total diseased area of all the first leaves) [2] | Evaluation (preventive value, number of lesions of the fourth leaf) [4] | further results
CCOC(=O)N1C(=S)c2ccccc2S1(=O)=O [Compound No. 5, 2-ethoxycarbonyl-1,2-benzisothiazoline-3-thioxo-1,1-dioxide] | B (Less than 100 to 80.0 or more) | B (Less than 25% of untreated plot) | B (Less than 100 to 80.0 or more) | Evaluation (preventive value, number of lesions of the upper young leaf) [3]: B (Less than 100 to 80.0 or more)
CC(C)N1C(=S)c2ccccc2S1(=O)=O [Compound No. 11] | B (Less than 100 to 80.0 or more) |  |  | 
O=S1(=O)c2ccccc2C(=S)N1CC=CCl [Compound No. 50] |  | B (Less than 25% of untreated plot) |  | Evaluation (total diseased area of all the cotyledons) [5]: B (Less than 25% of untreated plot)
C=CCOC1=NS(=O)(=O)c2ccccc21 [Probenazole, reference compound] | B (Less than 100 to 80.0 or more) |  |  | Evaluation (preventive value, number of lesions of the upper young leaf) [3]: B (Less than 100 to 80.0 or more)
COCN1C(=S)c2ccccc2S1(=O)=O [compound 2] | B (Less than 100 to 80.0 or more) |  | B (Less than 100 to 80.0 or more) | Evaluation (total infected area of all the first leaves) [6]: B (Less than 25% of untreated plot); Evaluation (total diseased area of all the cotyledons) [5]: B (Less than 25% of untreated plot); Evaluation (preventive value, number of lesions of the upper young leaf) [3]: B (Less than 100 to 80.0 or more)
CCOCN1C(=S)c2ccccc2S1(=O)=O [compound 3, 2-ethoxymethyl-1,2-benzisothiazoline-3-thioxo-1,1-dioxide] | B (Less than 100 to 80.0 or more) |  | B (Less than 100 to 80.0 or more) | Evaluation (preventive value, number of lesions of the upper young leaf) [3]: B (Less than 100 to 80.0 or more)
CCCOC(=O)N1C(=S)c2ccccc2S1(=O)=O [compound 6] | B (Less than 100 to 80.0 or more) | B (Less than 25% of untreated plot) | A (100) | Evaluation (total diseased area of all the cotyledons) [5]: B (Less than 25% of untreated plot)
C=CCOC(=O)N1C(=S)c2ccccc2S1(=O)=O [compound 7] | B (Less than 100 to 80.0 or more) | B (Less than 25% of untreated plot) | B (Less than 100 to 80.0 or more) | 
C#CCOC(=O)N1C(=S)c2ccccc2S1(=O)=O [compound 8] | B (Less than 100 to 80.0 or more) |  | B (Less than 100 to 80.0 or more) | Evaluation (total infected area of all the first leaves) [6]: B (Less than 25% of untreated plot)
CC(C)COC(=O)N1C(=S)c2ccccc2S1(=O)=O [compound 9] | B (Less than 100 to 80.0 or more) | B (Less than 25% of untreated plot) | B (Less than 100 to 80.0 or more) | Evaluation (total diseased area of all the cotyledons) [5]: B (Less than 25% of untreated plot)
O=C(Oc1ccc(Cl)cc1)N1C(=S)c2ccccc2S1(=O)=O [compound 10] | B (Less than 100 to 80.0 or more) | B (Less than 25% of untreated plot) |  | 
CSCN1C(=S)c2ccccc2S1(=O)=O [compound 17] | B (Less than 100 to 80.0 or more) |  |  | 
N#CCN1C(=S)c2ccccc2S1(=O)=O [compound 19] | B (Less than 100 to 80.0 or more) |  |  | 
O=[N+]([O-])CN1C(=S)c2ccccc2S1(=O)=O [compound 20] | B (Less than 100 to 80.0 or more) |  |  | 
CC(=O)N1C(=S)c2ccccc2S1(=O)=O [compound 22] | B (Less than 100 to 80.0 or more) |  |  | 
COC(=O)N1C(=S)c2ccccc2S1(=O)=O [compound 23] | B (Less than 100 to 80.0 or more) |  |  | 
CC(C)OC(=O)N1C(=S)c2ccccc2S1(=O)=O [compound 24] | B (Less than 100 to 80.0 or more) |  |  | 

Structure (SMILES) | Evaluation (preventive value, number of lesions of the upper young leaf) [1] | Evaluation (total diseased area of all the first leaves) [2] | Evaluation (preventive value, number of lesions of the fourth leaf) [4] | further results
O=C(Oc1ccccc1)N1C(=S)c2ccccc2S1(=O)=O [compound 25] | B (Less than 100 to 80.0 or more) |  |  | 
CCC(=O)N1C(=S)c2ccccc2S1(=O)=O [compound 27] |  |  | B (Less than 100 to 80.0 or more) | 
O=S1(=O)c2ccccc2C(=S)N1C1CCCC1 [compound 29] |  | B (Less than 25% of untreated plot) |  | 
O=C(OCCCl)N1C(=S)c2ccccc2S1(=O)=O [compound 30] |  | B (Less than 25% of untreated plot) | B (Less than 100 to 80.0 or more) | 
CCCCOC(=O)N1C(=S)c2ccccc2S1(=O)=O [compound 31] | B (Less than 100 to 80.0 or more) | B (Less than 25% of untreated plot) |  | 
O=[N+]([O-])CCN1C(=S)c2ccccc2S1(=O)=O [compound 39] | B (Less than 100 to 80.0 or more) | B (Less than 25% of untreated plot) | B (Less than 100 to 80.0 or more) | 
CC(C[N+](=O)[O-])N1C(=S)c2ccccc2S1(=O)=O (stereo not drawn) [compound 40] | B (Less than 100 to 80.0 or more) | B (Less than 25% of untreated plot) | B (Less than 100 to 80.0 or more) | 
CCOC(=O)C(C(=O)OCC)N1C(=S)c2ccccc2S1(=O)=O [compound 42] |  |  |  | Evaluation (total diseased area of all the cotyledons) [5]: B (Less than 25% of untreated plot)
CON1C(=S)c2ccccc2S1(=O)=O [compound 43, 2-methoxy-1,2-benzisothiazoline-3-thioxo-1,1-dioxide] | B (Less than 100 to 80.0 or more) |  | B (Less than 100 to 80.0 or more) | 
O=S1(=O)c2ccccc2C(=S)N1CBr [compound 44, 2-bromomethyl-1,2-benzisothiazoline-3-thioxo-1,1-dioxide] | B (Less than 100 to 80.0 or more) | B (Less than 25% of untreated plot) | B (Less than 100 to 80.0 or more) | 
O=S1(=O)c2ccccc2C(=S)N1CCl [compound 45] | B (Less than 100 to 80.0 or more) |  | A (100) | 
O=C(OCN1C(=S)c2ccccc2S1(=O)=O)c1ccccc1 [compound 46, 2-benzoyloxymethyl-1,2-benzisothiazoline-3-thioxo-1,1-dioxide] | B (Less than 100 to 80.0 or more) |  | B (Less than 100 to 80.0 or more) | 
O=C(OCN1C(=S)c2ccccc2S1(=O)=O)c1cc(Cl)nc(Cl)c1 [compound 47] | B (Less than 100 to 80.0 or more) |  |  | Evaluation (preventive value, number of lesions of the upper young leaf) [3]: B (Less than 100 to 80.0 or more)
N#CSCN1C(=S)c2ccccc2S1(=O)=O [compound 48] |  | B (Less than 25% of untreated plot) | B (Less than 100 to 80.0 or more) | Evaluation (total diseased area of all the cotyledons) [5]: B (Less than 25% of untreated plot)
Cc1nnsc1C(=O)OCN1C(=S)c2ccccc2S1(=O)=O [compound 49] |  |  | B (Less than 100 to 80.0 or more) | 
COCCN1C(=S)c2ccccc2S1(=O)=O [compound 53] |  |  |  | Evaluation (total diseased area of all the cotyledons) [5]: B (Less than 25% of untreated plot)
